# Results reported in patent publication US5817624A, “Permeation enhancer compositions for increased absorption of therapeutic proteins through the colonic membrane” (Alza Corporation, priority 1995, dated 1998).
# Several values for one entry are separate records, joined by “and”; a condition that tells them apart may be missing. Equal values may be shown once. Read-outs that look alike come from different tables or passages of the source.
# System: fasted anesthetized Sprague-Dawley male rats
# Details: for % Maximum Decrease 0-60 mins (blood glucose): sodium bovine insulin 0.5 mg/kg, 1 mL peanut oil, intracolonic bolus, n = 3-4
# Description: An animal model commonly known as the "intracolonic ligated model" was employed for testing formulations. Surgical preparation of a fasted anesthetized 0.3-0.5 kg Sprague-Dawley male rats proceeded as follows. A segment of proximal colon was isolated and the colon was flushed of fecal materials. The segment was ligated at both ends while a catheter was placed in the lumen and exteriorized above the skin for delivery of test formulation. The colonic contents were flushed out and the colon was returned to the abdomen of the animal. Depending on the experimental set up, the test formulation was added after the segment was filled with 1 mL/kg of 20 mM sodium phosphate buffer, pH 7.4, to more accurately simulate the actual colon environment in a clinical situation.
# Rats were allowed to equilibrate for approximately 1 hour after surgical preparation and prior to exposure to each test formulation. Immediately prior to test solution administration, a 0.3-0.5 mL blood sample was taken from the jugular catheter of the rats and analyzed for glucose content using an Ames GlucometerM® blood glucose meter utilizing Glucostix® reagent strips. Withdrawn blood was replaced with an equal volume of heparinized Ringer's. Sodium bovine insulin was formulated to be delivered at a dose of 0.5 mg/kg body weight. Initially, all candidate enhancers were tested at a concentration of 300 mM. […] The solutes (enhancer and insulin) were suspended in 1 mL peanut oil (except where noted) and mixed using a vortex mixer. Test solutions were vortexed immediately prior to aspiration into individual delivery syringes.
# After determination of baseline blood glucose levels, the test solution was administered as an intracolonic bolus and delivered at 1 ml/kg adjusting for either the 100 μl or 250 μl dead volume of the colonic catheter. Blood samples obtained from the jugular catheter were taken at 0, 5, 15, 30, 60, 120, 180 and 240 minutes and analyzed for blood glucose concentration. At the end of the 4 hour test period, the rats were euthanized with an overdose of pentobarbital. Colonic segments from each rat were excised and opened longitudinally along the anti-mesenteric border. Each segment was observed macroscopically for irritation and any abnormality noted. The excised colons were placed on graph paper and measured to approximate colonic surface area. Blood glucose dynamics are reported as the percent change from initial blood glucose levels.
# Rats were prepared as described in EXAMPLE 1. […] The open symbols denote the formulations delivered in oil whereas the closed symbol denotes the formulation without oil.
Structure (SMILES),% Maximum Decrease 0-60 mins (blood glucose) (enhancer 300 mM),other results
"O=C([O-])c1cc(O)ccc1O.[Na+] [2,5-Dihydroxybenzoic acid, Na salt]",1% and 9%,
"O=C([O-])c1ccccc1.[Na+] [Benzoic acid, Na salt]",0%,
"Nc1ccc(C(=O)[O-])c(O)c1.[Na+] [4-Amino salicylic acid, Na salt]",10%,
"Nc1ccc(O)c(C(=O)[O-])c1.[Na+] [5-Amino salicylic acid, Na salt]",13%,% Maximum Decrease 0-60 mins (blood glucose) (enhancer 100 mM): 13%
"O=C([O-])c1ccccc1O.[Na+] [Na Salicylate, sodium salicylate]",,"rats that died (enhancer 250 mM with insulin 0.5 mg/kg in 1/8 mL peanut oil): 2/4; effect on blood glucose levels over a 4 hour period (enhancer 300 mM formulated without insulin): no effect; decrease in fasting blood glucose levels from pre-exposure levels (significance) (enhancer 300 mM with sodium bovine insulin (0.5 mg/kg) and peanut oil): significant decrease; rats that died (enhancer 600 mM with insulin 0.5 mg/kg and peanut oil, death due to low blood glucose levels): 4/4"
[Cl-].[Na+] [NaCl],2%,
"COc1ccc(O)c(C(=O)[O-])c1.[Na+] [5-Methoxysalicylic acid, Na salt]",9%,
